The source of these data is Sander's compilation of Henry's law constants (doi:10.1021/es00034a021).

Structures are written as SMILES.

The data set can be described thus: Henry solubility constant Hcp at 298.15 K (mol/(m3 Pa)). The conditions noted are these: reference: Tse et al. (1992).
Consider `ClC(Cl)C(Cl)Cl` [1,1,2,2-tetrachloroethane], for which the “Henry solubility constant Hcp” value is 0.026.

As to `CC(Cl)(Cl)Cl` [1,1,1-trichloroethane], the “Henry solubility constant Hcp” value turned out to be 0.00063. As for `CC(Cl)CCl` (stereo not drawn) [1,2-dichloropropane], the “Henry solubility constant Hcp” value is 0.0038.

Take `BrCBr` [dibromomethane]: the “Henry solubility constant Hcp” value was found to be 0.011. Then `ClCC(Cl)(Cl)Cl` [1,1,1,2-tetrachloroethane], with 0.0045. With `ClCCl` [dichloromethane], the “Henry solubility constant Hcp” value stood at 0.0039.

Consider `BrC(Br)Br` [tribromomethane], for which the “Henry solubility constant Hcp” value amounted to 0.019. With `C=C(Cl)Cl` [1,1-dichloroethene] the figure was 0.00035; with `ClC(Br)Br` [dibromochloromethane], 0.0093.

`ClC(Cl)(Cl)Cl` [tetrachloromethane]: the “Henry solubility constant Hcp” value amounted to 0.00038. As to `ClCC(Cl)Cl` [1,1,2-trichloroethane], the “Henry solubility constant Hcp” value turned out to be 0.011. Turning to `ClC=C(Cl)Cl` [trichloroethene], the “Henry solubility constant Hcp” value stood at 0.0011. Turning to `ClC(Cl)Br` [bromodichloromethane], the “Henry solubility constant Hcp” value was 0.0048.
